The values that follow are results of earlier work, collected in patent publication US20100216641A1, “Low VOC and Stable Plant Growth Regulator Liquid and Granule Compositions” (priority 2009, published 2010).

Structures are written as SMILES.

The conditions of the data set: at 25° C.

On to `O=C(Nc1ccccc1)Nc1ccnc(Cl)c1` [CPPU, forchlorfenuron], for which the water solubility was 39 ppm.
